Experimental data reported in PMC11571207, “Stereorandomized Oncocins with Preserved Ribosome Binding and Antibacterial Activity” (Journal of Medicinal Chemistry, 2024).
≈ marks a conversion by molar mass, not a printed value. Where two headings read alike, the source gives them in different places. Non-standard residues stand in square brackets, D forms with d. Residues, ends and D or L forms follow the SMILES beside them. Nleu = CC(C)CNCC(=O)O; Nlys = NCCCCNCC(=O)O

Tests used:
[1] = test system: S. aureus COL (MRSA); test: microbe, parasite or virus in culture; settings: for MIC S. aureus COL (MRSA): supplement CSV
In short: (§1)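 Read-out was visible growth after MTT addition, the MIC being the lowest inhibitory peptide concentration. Bacteria grown to log phase in LB were exposed in MH medium to peptide from 64 μg/mL in twofold dilutions for 15-18h at 37°C.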

[2] = test system: K. pneumoniae NCTC 418; test: microbe, parasite or virus in culture
In short: as §1

[3] = test system: E. coli W3110; test: microbe, parasite or virus in culture; settings: for MIC E. coli W3110: supplement CSV
In short: as §1

[4] = test system: P. aeruginosa PAO1; test: microbe, parasite or virus in culture; settings: for MIC P. aeruginosa PAO1: supplement CSV
In short: as §1

[5] = test system: A. baumannii ATCC19606; test: microbe, parasite or virus in culture; settings: for MIC A. baumannii ATCC19606: supplement CSV
In short: as §1

[6] = test system: P. aeruginosa PA14; test: microbe, parasite or virus in culture; settings: for MIC P. aeruginosa PA14: supplement CSV
Protocol: (§2) Minimum inhibitory concentration assay
(§3) Antimicrobial activity was assayed against P. aeruginosa PAO1, K. pneumoniae NCTC418, E. coli W3110, A. baumannii ATCC 19606, methicillin-resistant S. aureus COL (MRSA), and for selected peptides on P. aeruginosa PA14 and the polymyxin-B-resistant derivative PA14 2P4, as well as the clinical isolates ZEM-1A and ZEM9A, K. pneumoniae OXA-48, S. aureus Newman, Enterobacter cloacae and Burkholderia cenocepacia. The minimal inhibitory concentration (MIC) was determined by using broth microdilution method. A colo ny of bacteria was picked and grown in Luria-Bertani (LB) medium overnight at 37°C. For E. coli BW25113 sbmA::kan the medium was supplemented with 25 mg/L of kanamycin. The next day, the culture was then regrown in LB medium to log phase (OD600 = 0.6 to 0.8), which lasted approximately 4 h, and diluted to an OD600 of 0.022 in the desired medium. Stock solutions of 1 mg/mL of the samples were prepared in sterilized milliQ water and diluted to the beginning concentration of 64 μg/mL in 300 μL Mueller Hinton (MH)-medium. The diluted samples were added to first well of 96-well microtiter plate (TPP, untreated, Faust Laborbedarf, AG, Schaffhausen) and diluted serially by ½. Finally, 4 μL of the bacterial suspension was inoculated into the sample solutions (150 μL/well) with a final inoculation of about 5∙10^5 CFU/mL. The plates were then incubated at 37°C for 15-18h. For each assay, sterility (broth only) and growth control (broth with bacterial inoculum, without antibiotics) were checked with two columns in the plate. The next day, 15 μL of 3-(4,5-dimethylthiazol-2-yl)-2,5-diphenyltetrazolium bromide (MTT) was added to each well of the plate, such a way that MIC was defined as the lowest concentration of the peptide that inhibited visible growth of the tested

[7] = test system: P. aeruginosa ZEM9A; test: microbe, parasite or virus in culture; settings: for MIC P. aeruginosa ZEM9A: supplement CSV
Protocol: as §2, §3

[8] = test system: P. aeruginosa PA14 2P4 (pmrB); test: microbe, parasite or virus in culture; settings: for MIC P. aeruginosa PA14 2P4: supplement CSV
Protocol: as §2, §3

[9] = test system: K. pneumoniae OXA-48; test: microbe, parasite or virus in culture; settings: for MIC K. pneumoniae OXA-48: supplement CSV
Protocol: as §2, §3

[10] = test system: E. cloacae; test: microbe, parasite or virus in culture; settings: for MIC E. cloacae: supplement CSV
Protocol: as §2, §3

[11] = test system: P. aeruginosa ZEM-1A; test: microbe, parasite or virus in culture
Protocol: as §2, §3

[12] = test system: P. aeruginosa PA14 4.13 (phoQ); settings: for MIC P. aeruginosa PA14 4.13: supplement CSV
[13] = test system: P. aeruginosa PA14 4.18 (pmrB); settings: for MIC P. aeruginosa PA14 4.18: supplement CSV
[14] = test system: human red blood cells; test: Hemolysis assay, minimum hemolytic concentration
[15] = test system: human red blood cells; settings: red cells of human, 6 h
[16] = supplement CSV, 12.5% MH pH 7.4
[17] = polymyxin B resistant strain, 12.5% MHB pH 7.4, 16–20 h at 37 °C
[18] = polymyxin B resistant strain, full MHB pH 7.4, 16–20 h at 37 °C

CC[C@@H](C)[C@@H](NC(=O)[C@@H](CCCNC(=N)N)NC(=O)[C@H](CCCNC(=N)N)NC(=O)[C@@H]1CCCN1C(=O)[C@@H]1CCCN1C(=O)[C@H](CCCNC(=N)N)NC(=O)[C@@H]1CCCN1C(=O)[C@H](CCCNC(=N)N)NC(=O)[C@@H]1CCCN1C(=O)[C@H](CC(C)C)NC(=O)[C@H](Cc1ccc(O)cc1)NC(=O)[C@@H]1CCCN1C(=O)[C@@H]1CCCN1C(=O)[C@H](CCCCN)NC(=O)[C@H](CC(=O)O)NC(=O)[C@@H](N)C(C)C)C(=O)N[C@H](Cc1ccc(O)cc1)C(=O)N[C@H](CC(N)=O)C(=O)N[C@H](CCCNC(=N)N)C(N)=O [D5Cterm-Onc] (H-VDKPPYLPRPRPPR[dR][dI][dY][dN][dR]-NH2)
MIC S. aureus, 12.5% MHB ([1]; S. aureus COL (MRSA), 12.5% Müller–Hinton medium, 16–20 h at 37 °C): 32 µg/mL (≈ 13.4 µM) | MIC S. aureus, Full MHB ([1]; S. aureus COL (MRSA), full Müller–Hinton medium, 16–20 h at 37 °C): > 64 µg/mL | MIC S. aureus COL (MRSA) ([1]; 12.5% MH pH 7.4): 32 µg/mL (≈ 13.4 µM) | MIC S. aureus COL (MRSA) ([1]; full MH pH 7.4): >64 µg/mL | MIC K. pneumoniae, 12.5% MHB ([2]; K. pneumoniae NCTC 418, 12.5% Müller–Hinton medium, 16–20 h at 37 °C): 2 µg/mL (≈ 0.837 µM) | MIC K. pneumoniae, Full MHB ([2]; K. pneumoniae NCTC 418, full Müller–Hinton medium, 16–20 h at 37 °C): 4 µg/mL (≈ 1.67 µM) | MIC K. pneumoniae NCTC418 [2, 16]: 2 µg/mL (≈ 0.837 µM) | MIC K. pneumoniae NCTC418 ([2]; supplement CSV, full MH pH 7.4): 4 µg/mL (≈ 1.67 µM) | MIC E. coli, 12.5% MHB ([3]; E. coli W3110, 12.5% Müller–Hinton medium, 16–20 h at 37 °C, broth microdilution): 2 µg/mL (≈ 0.837 µM) | MIC E. coli, Full MHB ([3]; E. coli W3110, full Müller–Hinton medium, 16–20 h at 37 °C, broth microdilution): 4 µg/mL (≈ 1.67 µM) | MIC E. coli W3110 ([3]; 12.5% MH pH 7.4): 2 µg/mL (≈ 0.837 µM) | MIC E. coli W3110 ([3]; full MH pH 7.4): 4 µg/mL (≈ 1.67 µM) | MIC P. aeruginosa, 12.5% MHB ([4]; P. aeruginosa PAO1, 12.5% Müller–Hinton medium, 16–20 h at 37 °C): 8 µg/mL (≈ 3.35 µM) | MIC P. aeruginosa, Full MHB ([4]; P. aeruginosa PAO1, full Müller–Hinton medium, 16–20 h at 37 °C): 64 µg/mL (≈ 26.8 µM) | MIC P. aeruginosa PAO1 ([4]; 12.5% MH pH 7.4): 8 µg/mL (≈ 3.35 µM) | MIC P. aeruginosa PAO1 ([4]; full MH pH 7.4): 64 µg/mL (≈ 26.8 µM) | MIC A. baumannii, 12.5% MHB ([5]; A. baumannii ATCC19606, 12.5% Müller–Hinton medium, 16–20 h at 37 °C): 8 µg/mL (≈ 3.35 µM) | MIC A. baumannii, Full MHB ([5]; A. baumannii ATCC19606, full Müller–Hinton medium, 16–20 h at 37 °C): 64 µg/mL (≈ 26.8 µM) | MIC A. baumannii ATCC19606 ([5]; 12.5% MH pH 7.4): 8 µg/mL (≈ 3.35 µM) | MIC A. baumannii ATCC19606 ([5]; full MH pH 7.4): 64 µg/mL (≈ 26.8 µM) | MIC P. aeruginosa PA14, 12.5% MHB ([6]; 12.5% MHB pH 7.4, 16–20 h at 37 °C, two different duplicate MIC determinations): 8 µg/mL (≈ 3.35 µM) | MIC P. aeruginosa PA14, full MHB ([6]; full MHB pH 7.4, 16–20 h at 37 °C, two different duplicate MIC determinations): > 64 µg/mL | MIC P. aeruginosa PA14 ([6]; 12.5% MH pH 7.4): 8 µg/mL (≈ 3.35 µM) | MIC P. aeruginosa PA14 ([6]; full MH pH 7.4): >64 µg/mL | MIC P. aeruginosa ZEM9A, 12.5% MHB ([7]; clinical isolate, 12.5% MHB pH 7.4, 16–20 h at 37 °C): 2 µg/mL (≈ 0.837 µM) | MIC P. aeruginosa ZEM9A, full MHB ([7]; clinical isolate, full MHB pH 7.4, 16–20 h at 37 °C): > 64 µg/mL | MIC P. aeruginosa ZEM9A ([7]; 12.5% MH pH 7.4): 2 µg/mL (≈ 0.837 µM) | MIC P. aeruginosa ZEM9A ([7]; full MH pH 7.4): >64 µg/mL | MIC P. aeruginosa PA14 2P4 (pmrB), 12.5% MHB [8, 17]: 2 µg/mL (≈ 0.837 µM) | MIC P. aeruginosa PA14 2P4 (pmrB), full MHB [8, 18]: > 64 µg/mL | MIC P. aeruginosa PA14 2P4 ([8]; 12.5% MH pH 7.4): 2 µg/mL (≈ 0.837 µM) | MIC P. aeruginosa PA14 2P4 ([8]; full MH pH 7.4): >64 µg/mL | MIC K. pneumoniae OXA-48, 12.5% MHB ([9]; carbapenem-resistant, 12.5% MHB pH 7.4, 16–20 h at 37 °C): 4 µg/mL (≈ 1.67 µM) | MIC K. pneumoniae OXA-48, full MHB ([9]; carbapenem-resistant, full MHB pH 7.4, 16–20 h at 37 °C): 32 µg/mL (≈ 13.4 µM) | MIC K. pneumoniae OXA-48 ([9]; 12.5% MH pH 7.4): 4 µg/mL (≈ 1.67 µM) | MIC K. pneumoniae OXA-48 ([9]; full MH pH 7.4): 32 µg/mL (≈ 13.4 µM) | MIC E. cloacae, 12.5% MHB ([10]; 12.5% MHB pH 7.4, 16–20 h at 37 °C): 1 µg/mL (≈ 0.418 µM) | MIC E. cloacae, full MHB ([10]; full MHB pH 7.4, 16–20 h at 37 °C): 32 µg/mL (≈ 13.4 µM) | MIC E. cloacae ([10]; 12.5% MH pH 7.4): 1 µg/mL (≈ 0.418 µM) | MIC E. cloacae ([10]; full MH pH 7.4): 32 µg/mL (≈ 13.4 µM) | MIC P. aeruginosa ZEM-1A, 12.5% MHB ([11]; clinical isolate, 12.5% MHB pH 7.4, 16–20 h at 37 °C, cells marked c: single measurement (in duplicates)): 4 to 8 µg/mL | MIC P. aeruginosa ZEM-1A [11, 16]: 4 to 8 µg/mL | MIC P. aeruginosa PA14 4.13 (phoQ), 12.5% MHB [12, 17]: 8 µg/mL (≈ 3.35 µM) | MIC P. aeruginosa PA14 4.13 (phoQ), full MHB [12, 18]: 64 µg/mL (≈ 26.8 µM) | MIC P. aeruginosa PA14 4.13 ([12]; 12.5% MH pH 7.4): 8 µg/mL (≈ 3.35 µM) | MIC P. aeruginosa PA14 4.13 ([12]; full MH pH 7.4): 64 µg/mL (≈ 26.8 µM) | MIC P. aeruginosa PA14 4.18 (pmrB), 12.5% MHB [13, 17]: 8 µg/mL (≈ 3.35 µM) | MIC P. aeruginosa PA14 4.18 (pmrB), full MHB [13, 18]: 64 µg/mL (≈ 26.8 µM) | MIC P. aeruginosa PA14 4.18 ([13]; 12.5% MH pH 7.4): 8 µg/mL (≈ 3.35 µM) | MIC P. aeruginosa PA14 4.18 ([13]; full MH pH 7.4): 64 µg/mL (≈ 26.8 µM) | Haemolysis on hRBC, MHC ([14]; 2.5% human red blood cells (final) in 10 mM phosphate, 150 mM NaCl, pH 7.4, 25 °C, 4 h, visual inspection): >1000 µg/mL | MHC human red blood cells ([14]; supplement CSV): >1000 µg/mL

CC(C)C[C@H](NC(=O)CN(CC(C)C)C(=O)[C@H](CC(C)C)NC(=O)CN(CCCCN)C(=O)[C@H](CC(C)C)NC(=O)CN(CC(C)C)C(=O)[C@H](CCCCN)NC(=O)CN(CC(C)C)C(=O)[C@H](CC(C)C)NC(=O)CN(CCCCN)C(=O)[C@@H](N)CCCCN)C(N)=O [EB9, reference compound] (H-K[Nlys]L[Nleu]K[Nleu]L[Nlys]L[Nleu]L-NH2; N-terminus assumed)
MHC human red blood cells [15]: >2000 µg/mL | MIC S. aureus, 12.5% MHB ([1]; COL): >32 / 32 μg/mL | MIC S. aureus, Full MHB ([1]; COL): >32 / 32 μg/mL | MIC K. pneumoniae, 12.5% MHB ([2]; NCTC 418): >32 / >32 μg/mL | MIC K. pneumoniae, Full MHB ([2]; NCTC 418): >32 / >32 μg/mL | MIC K. pneumoniae NCTC418 ([2]; NCTC 418, 4 h, pH 7.4): >32 µg/mL | MIC P. aeruginosa, 12.5% MHB ([4]; PAO1): 4 µg/mL (≈ 3.03 µM) | MIC P. aeruginosa, Full MHB ([4]; PAO1): 32 µg/mL (≈ 24.2 µM) | MIC A. baumannii, 12.5% MHB ([5]; ATCC19606): 16 µg/mL (≈ 12.1 µM) | MIC A. baumannii, Full MHB ([5]; ATCC19606): > 32 µg/mL
